Key:
[1] = tested on: H3, TP53, CDKN1A, BCL-2 and BAX genes in SNB-19, Caco-2, A549 and MDA-MB231; assay: RT-qPCR gene expression, summary over the cancer cell lines; type: cell-based, human
Experimental: (§1) In this method the gene transcriptional activities of proliferation marker (H3), cell cycle regulator (TP53 and CDKNIA), and intracellular apoptosis pathway (BCL-2 and BAX) were analyzed. It has been known that the growth, metabolism, and eventual death of the cells in the body are controlled by hundreds of genes working together. The gene encoding histone H3 plays a crucial role in regulation of the expression of the genetic information included in the DNA.
(§2) Genes trancriptional activity (H3, TP53, CDKN1A, BCL-2, and BAX) was evaluated by real time RT-qPCR with OPTICON TM DNA Engine (MJ Research, Watertown, MA, USA) and QuantTect® SYBR® Green RT-PCR Kit (Quiagen, Valencia, CA). Cells were exposed to compound 4 at a 0.5 µg/mL concentration for 24 h. The RNA extraction was made by using Quick-RNA™ Kit MiniPrep (ZYMO […]). Total RNA integrity was analysed in 1.2% agarose electrophoresis with added ethidium bromide. The quantity and purity of extracted total RNA were determined by using spectrophotometric analysis with HP845 (Hewlett Packard, Waldbronn, Germany) spectrophotometer. The statistical analysis was performed using the Statistica 8.0 software. All values were expressed as means ± SE.

[2] = tested on: H3, TP53, CDKN1A, BCL-2 and BAX genes in lung cancer A549; assay: RT-qPCR gene expression, A549; type: cell-based, human; details: A549, 0.5 µg/mL, 24 h
Experimental: as §1, §2

[3] = tested on: SNB-19, Caco-2, A549 and MDA-MB231 cancer cell lines; assay: WST-1 assay, summary over the cancer cell line panel; type: cell-based, human; details: Homo sapiens; span over SNB-19, Caco-2, A549, MDA-MB231; read-out: IC50 across all investigated cancer cell lines
Experimental: (§3) The antiproliferative activity of all 20 new 10-substituted 1,2,3-triazole derivatives of dipyridothiazines was tested in vitro against cancer cell lines: glioblastoma SNB-19, colorectal carcinoma Caco-2, lung cancer A549, and breast cancer MDA-MB231 using the WST-1 assay. Normal human fibroblasts NHDF were used as a control.
(§4) All dipyridothiazines with 1,2,3-triazole substituents (1–4)b–f were evaluated for their anticancer activity using four cultured cell lines: SNB-19 (human glioblastoma, DSMZ—German Collection of Microorganisms and Cell Cultures, Braunschweig, Germany), Caco-2 (human colon adenocarcinoma, DSMZ—German Collection of Microorganisms and Cell Cultures, Braunschweig, Germany), A549 (human lung carcinoma, ATCC, Manassas, VA, USA) and MDA-MB231 (human breast adenocarcinoma, ATCC, Manassas, VA, USA), and NHDF (human dermal fibroblast cell line, ATCC, Manassas, VA, USA. The cultured cells were kept at 37 °C and 5% CO2. The cells were seeded (1 × 10^4 cells/well/100 µL DMEM supplemented with 10% FCS and streptomycin and penicillin) using 96-well plates (Corning). The cells were counted in a hemocytometer (Burker’s chamber) using a phase contrast Olympus IX50 microscope equipped with Sony SSC-DC58 AP camera and Olympus DP10 digital camera.
(§5) Antiproliferative effect of the obtained compounds on the cancer cells was determined using the cell proliferation reagent WST-1 assay (Roche Diagnostics, Mannheim, Germany). This assay is based on the viable cell’s ability to cleave the bright red-colored tetrazolium salt (2-(4-iodophenyl)-3-(4-nitrophenyl)-5-(2,4-disulfophenyl)-2H-tetrazolium, monosodium salt) to dark red soluble formazan by cellular enzymes. An increase in the amount of formazan dye formed correlates to the number of metabolically active cells in the culture. The formazan dye produced by metabolically active cells is quantified by a scanning ELISA reader by measuring the absorbance of the dye solution at appropriate wavelengths. The examined cells were exposed to the tested compounds for 72 h at various concentrations between 0.1 μg/mL and 100 μg/mL (prepared initially at concentration of 1 mg/mL in DMSO). The cells were incubated with WST-1 (10 μL) for 1 h and the absorbance of the samples against a background control was measured at 450 nm using a microplate reader with a reference wavelength at 600 nm. The results are expressed as means of at least two independent experiments performed in triplicate.

[4] = tested on: glioblastoma SNB-19; assay: WST-1 cell proliferation assay, SNB-19; type: cell-based, human; details: Homo sapiens; SNB-19, WST-1, 72 h; read-out: Anticancer Activity IC50 SNB-19
Experimental: as §3, with “Encouraged by our previous promising results in the field of antiproliferative activity of dipyridothiazines as well as by the good anticancer activity of the 1,2,3-triazoles, we decided to combine the biological potentials of dipyridothiazines and triazole moieties, hoping to obtain compounds with better activity. The” for “The”
as §4, §5

[5] = tested on: H3, TP53, CDKN1A, BCL-2 and BAX genes in colorectal carcinoma Caco-2; assay: RT-qPCR gene expression, Caco-2; type: cell-based, human
Experimental: as §1, §2

[6] = tested on: H3, TP53, CDKN1A, BCL-2 and BAX genes in breast cancer MDA-MB231; assay: RT-qPCR gene expression, MDA-MB231; type: cell-based, human
Experimental: as §1, §2

[7] = tested on: breast cancer MDA-MB231; assay: WST-1 cell proliferation assay, MDA-MB231; type: cell-based, human; details: Homo sapiens, MDA-MB-231; MDA-MB231, WST-1, 72 h; read-out: Anticancer Activity IC50 MDA-MB231
Experimental: as §3, with “Encouraged by our previous promising results in the field of antiproliferative activity of dipyridothiazines as well as by the good anticancer activity of the 1,2,3-triazoles, we decided to combine the biological potentials of dipyridothiazines and triazole moieties, hoping to obtain compounds with better activity. The” for “The”
as §4, §5

[8] = tested on: normal human fibroblasts NHDF; assay: WST-1 cytotoxicity assay, normal fibroblasts NHDF; type: cell-based; details: for IC50: normal human fibroblasts NHDF, WST-1, 72 h
Experimental: as §3, with “Encouraged by our previous promising results in the field of antiproliferative activity of dipyridothiazines as well as by the good anticancer activity of the 1,2,3-triazoles, we decided to combine the biological potentials of dipyridothiazines and triazole moieties, hoping to obtain compounds with better activity. The” for “The”
as §4, §5

[9] = tested on: colorectal carcinoma Caco-2; assay: WST-1 cell proliferation assay, Caco-2; type: cell-based; details: Homo sapiens; Caco-2, WST-1, 72 h; read-out: Anticancer Activity IC50 Caco-2
Experimental: as §3, §4, §5

[10] = tested on: H3, TP53, CDKN1A, BCL-2 and BAX genes in glioblastoma SNB-19; assay: RT-qPCR gene expression, SNB-19; type: cell-based, human; details: SNB-19, 0.5 µg/mL, 24 h
Experimental: as §1, §2

[11] = tested on: lung cancer A549; assay: WST-1 cell proliferation assay, A549; type: cell-based, human; details: Homo sapiens; A549, WST-1, 72 h; read-out: Anticancer Activity IC50 A549
Experimental: as §3, with “Encouraged by our previous promising results in the field of antiproliferative activity of dipyridothiazines as well as by the good anticancer activity of the 1,2,3-triazoles, we decided to combine the biological potentials of dipyridothiazines and triazole moieties, hoping to obtain compounds with better activity. The” for “The”
as §4, §5

Clc1ccc(Cn2cc(CN3c4cccnc4Sc4cccnc43)nn2)cc1 [1d, 10-[(1-(4-Chlorobenzyl)-1H-1,2,3-triazol-4-yl)methyl]-1,6-diazaphenothiazine]
effect on expression of BCL-2 (in words) ([1]; SNB-19, A549 and MDA-MB231): remarkably reduced
effect on CDKN1A copies (in words) ([1]; all cancer cells): strong decline
effect on mRNA copy number of the histone H3 gene (in words) ([1]; all cancer lines): strongly changed
effect on expression of BAX (in words) ([1]; all investigated cancer cell lines): decrease
effect on amount of mRNA copies of TP53 (in words) ([1]; all investigated cancer lines): significantly interfered
BAX number of mRNA copies/μg total RNA [2]: 835+/−231 mRNA Copies/μg Total RNA
BCL-2/BAX gene expression ratio [2]: 18
BCL-2 number of mRNA copies/μg total RNA [2]: 15631+/−2296 mRNA Copies/μg Total RNA
CDKN1A number of mRNA copies/μg total RNA [2]: 969+/−137 mRNA Copies/μg Total RNA
H3 number of mRNA copies/μg total RNA [2]: 18+/−5 mRNA Copies/μg Total RNA
TP53 number of mRNA copies/μg total RNA [2]: 54+/−19 mRNA Copies/μg Total RNA
IC50 [3]: 250 to 4660 nM
IC50 [4]: 4660 nM
effect on expression of BCL-2 (in words) ([5]; Caco-2): slight increase
BAX number of mRNA copies/μg total RNA ([5]; Caco-2, 0.5 µg/mL, 24 h): 969+/−264 mRNA Copies/μg Total RNA
BCL-2/BAX gene expression ratio ([5]; Caco-2, 0.5 µg/mL, 24 h): 743
BCL-2 number of mRNA copies/μg total RNA ([5]; Caco-2, 0.5 µg/mL, 24 h): 723708+/−217134 mRNA Copies/μg Total RNA
CDKN1A number of mRNA copies/μg total RNA ([5]; Caco-2, 0.5 µg/mL, 24 h): 260+/−21 mRNA Copies/μg Total RNA
H3 number of mRNA copies/μg total RNA ([5]; Caco-2, 0.5 µg/mL, 24 h): 45+/−3 mRNA Copies/μg Total RNA
TP53 number of mRNA copies/μg total RNA ([5]; Caco-2, 0.5 µg/mL, 24 h): 193+/−16 mRNA Copies/μg Total RNA
apoptosis pathway from gene expression ratio BCL-2/BAX (in words) ([6]; MDA-MB231): activation of the mitochondrial apoptosis
BAX number of mRNA copies/μg total RNA ([6]; MDA-MB231, 0.5 µg/mL, 24 h): 221+/−16 mRNA Copies/μg Total RNA
BCL-2 number of mRNA copies/μg total RNA ([6]; MDA-MB231, 0.5 µg/mL, 24 h): 16495+/−4607 mRNA Copies/μg Total RNA
CDKN1A number of mRNA copies/μg total RNA ([6]; MDA-MB231, 0.5 µg/mL, 24 h): 577+/−308 mRNA Copies/μg Total RNA
H3 number of mRNA copies/μg total RNA ([6]; MDA-MB231, 0.5 µg/mL, 24 h): 8+/−6 mRNA Copies/μg Total RNA
TP53 number of mRNA copies/μg total RNA ([6]; MDA-MB231, 0.5 µg/mL, 24 h): 46+/−20 mRNA Copies/μg Total RNA
IC50 [7]: 510 nM
cytotoxicity against normal human fibroblasts (in words) ([8]; NHDF): relatively low cytotoxicity
IC50 [8]: > 100000 nM
IC50 [9]: 250 nM
BAX number of mRNA copies/μg total RNA [10]: 220+/−18 mRNA Copies/μg Total RNA
BCL-2 number of mRNA copies/μg total RNA [10]: 17497+/−4607 mRNA Copies/μg Total RNA
CDKN1A number of mRNA copies/μg total RNA [10]: 308+/−51 mRNA Copies/μg Total RNA
H3 number of mRNA copies/μg total RNA [10]: 52+/−11 mRNA Copies/μg Total RNA
TP53 number of mRNA copies/μg total RNA [10]: 128+/−24 mRNA Copies/μg Total RNA
IC50 [11]: 250 nM

Fc1ccc(Cn2cc(CN3c4ccncc4Sc4ncccc43)nn2)cc1 [4c, 10-[(1-(4-Fluorobenzyl)-1H-1,2,3-triazol-4-yl)methyl]-3,6-diazaphenothiazine]
IC50 [3]: 250 to 6250 nM
IC50 [4]: 6250 nM
IC50 [7]: 1970 nM
IC50 [8]: 2850 nM
IC50 [9]: 250 nM
IC50 [11]: 250 nM
